In patent publication US20240150368A1, “ULK INHIBITORS AND METHODS OF USE THEREOF” (Deciphera Pharmaceuticals, LLC, priority 2022, published 2024):

How the values were obtained:
LRRK2 kinase = target: T1, LRRK2 kinase (Homo sapiens, UniProt Q5S007); test: Biochemical assay for LRRK2 (coupled pyruvate kinase/lactate dehydrogenase assay); conditions: 26.4 nM LRRK2, 1 mM ATP; read-out: LRRK2 (inhibition of LRRK2 kinase activity, IC50)
T1 construct: (residues 970-2528; ID NO; 3); purchased Thermo Fisher
T1 sequence (Q5S007 with tags, fused parts or gaps): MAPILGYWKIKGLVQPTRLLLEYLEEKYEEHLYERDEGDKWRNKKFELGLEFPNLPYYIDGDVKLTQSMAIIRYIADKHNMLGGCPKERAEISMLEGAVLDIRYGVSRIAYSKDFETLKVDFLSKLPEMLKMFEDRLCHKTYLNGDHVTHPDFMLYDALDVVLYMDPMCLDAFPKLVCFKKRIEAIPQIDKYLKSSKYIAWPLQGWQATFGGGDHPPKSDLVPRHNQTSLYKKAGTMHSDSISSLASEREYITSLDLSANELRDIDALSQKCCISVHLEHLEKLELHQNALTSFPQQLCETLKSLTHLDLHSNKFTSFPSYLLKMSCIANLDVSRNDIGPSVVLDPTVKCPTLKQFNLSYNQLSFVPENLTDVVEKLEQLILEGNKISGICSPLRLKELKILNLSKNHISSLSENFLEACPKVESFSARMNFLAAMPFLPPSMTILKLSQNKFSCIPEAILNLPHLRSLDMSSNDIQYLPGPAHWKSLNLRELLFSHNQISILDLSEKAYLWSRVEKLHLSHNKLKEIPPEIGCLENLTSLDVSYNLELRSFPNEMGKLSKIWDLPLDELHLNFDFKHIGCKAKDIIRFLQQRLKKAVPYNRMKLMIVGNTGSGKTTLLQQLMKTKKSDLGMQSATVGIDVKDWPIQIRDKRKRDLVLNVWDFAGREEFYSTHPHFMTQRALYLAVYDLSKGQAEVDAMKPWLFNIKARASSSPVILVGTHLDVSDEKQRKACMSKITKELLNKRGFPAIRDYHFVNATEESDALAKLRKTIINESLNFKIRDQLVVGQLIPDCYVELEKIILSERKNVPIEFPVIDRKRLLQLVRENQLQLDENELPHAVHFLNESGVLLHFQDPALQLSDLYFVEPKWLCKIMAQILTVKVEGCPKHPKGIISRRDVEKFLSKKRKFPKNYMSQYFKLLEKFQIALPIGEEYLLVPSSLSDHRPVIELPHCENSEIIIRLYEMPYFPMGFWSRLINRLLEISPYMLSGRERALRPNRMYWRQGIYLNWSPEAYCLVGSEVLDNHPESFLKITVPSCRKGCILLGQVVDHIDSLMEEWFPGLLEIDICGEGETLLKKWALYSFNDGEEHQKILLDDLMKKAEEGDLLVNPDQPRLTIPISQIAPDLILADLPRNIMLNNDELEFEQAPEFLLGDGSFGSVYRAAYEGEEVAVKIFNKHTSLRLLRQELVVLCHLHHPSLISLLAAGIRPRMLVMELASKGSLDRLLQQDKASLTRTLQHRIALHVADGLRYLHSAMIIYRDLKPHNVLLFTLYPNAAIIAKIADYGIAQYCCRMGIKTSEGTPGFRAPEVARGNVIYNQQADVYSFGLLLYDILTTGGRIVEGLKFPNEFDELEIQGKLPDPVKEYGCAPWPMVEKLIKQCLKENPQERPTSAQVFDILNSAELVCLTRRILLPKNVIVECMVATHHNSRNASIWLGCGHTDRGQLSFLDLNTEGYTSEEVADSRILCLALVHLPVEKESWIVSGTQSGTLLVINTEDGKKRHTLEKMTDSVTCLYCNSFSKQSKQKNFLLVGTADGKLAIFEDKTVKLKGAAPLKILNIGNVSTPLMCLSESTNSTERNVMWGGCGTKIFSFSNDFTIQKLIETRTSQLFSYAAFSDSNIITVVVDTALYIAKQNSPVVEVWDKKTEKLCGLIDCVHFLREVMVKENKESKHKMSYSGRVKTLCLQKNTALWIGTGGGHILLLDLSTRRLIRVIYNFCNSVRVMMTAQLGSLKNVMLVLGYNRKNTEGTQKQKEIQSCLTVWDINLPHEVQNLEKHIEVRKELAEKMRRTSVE

[1] = tested on: ULK kinase substrate ATG13 (pS318-ATG13) in MiaPaCa-2 cells; test: pATG13 levels of mutant KRas MiaPaCa-2 cells after treatment with ULK inhibitors in combination with trametinib (ELISA); type: cell-based, human
In short: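 MiaPaCa-2 cells grown overnight, then dosed with test compound titration plus trametinib (final 250 nM) or DMSO, overnight at 37° C. Lysate pS318-ATG13 measured by sandwich ELISA (total ATG13 capture, biotinylated pS318 detection, HRP/TMB, A450 minus A540); % phosphorylation vs control wells fitted to IC50.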

| SMILES | IC50 (LRRK2 kinase) [nM] | IC50 [1] [nM] |
| --- | --- | --- |
| CC/C(Nc1cnn(C2CCN(C(C)C)CC2)c1)=C1/C(=O)Nc2ccc(C(=O)NC[C@H]3CCCO3)cc21 [Example 1, (R,Z)-3-(1-((1-(1-isopropylpiperidin-4-yl)-1H-pyrazol-4-yl)amino)propylidene)-2-oxo-N-((tetrahydrofuran-2-yl)methyl)indoline-5-carboxamide] | 100 to 300 | ≤ 100 |
| CC/C(Nc1ccc(N2C[C@H]3CN(C)C[C@H]3C2)cc1)=C1/C(=O)Nc2ccc(C(=O)NCC(C)C)cc21 [Example 63] | – | ≤ 100 |
| CC/C(Nc1ccc(N2C[C@H]3CN(C)C[C@H]3C2)cc1)=C1/C(=O)Nc2ccc(C(=O)NC[C@H]3CCCO3)cc21 [Example 64] | – | ≤ 100 |
| CC/C(Nc1ccc(N2CC3(CN(C)C3)C2)cc1)=C1/C(=O)Nc2ccc(C(=O)NCC(C)C)cc21 [Example 65] | – | ≤ 100 |
| CC/C(Nc1ccc(N2CC3(CN(C)C3)C2)cc1)=C1/C(=O)Nc2ccc(C(=O)NC[C@H]3CCCO3)cc21 [Example 66] | – | ≤ 100 |
| CC/C(Nc1ccc(N2CC3CC(C2)N3C)cc1)=C1/C(=O)Nc2ccc(C(=O)NCC(C)C)cc21 [Example 67] | – | ≤ 100 |
| CC/C(Nc1ccc(N2CC3CC(C2)N3C)cc1)=C1/C(=O)Nc2ccc(C(=O)NC[C@H]3CCCO3)cc21 [Example 68] | – | ≤ 100 |
| CC/C(Nc1ccc(N2CC3CC2CN3C)cc1)=C1/C(=O)Nc2ccc(C(=O)NCC(C)C)cc21 (centres unmarked) [Example 69] | – | ≤ 100 |
| CC/C(Nc1ccc(N2CC3CC2CN3C)cc1)=C1/C(=O)Nc2ccc(C(=O)NC[C@H]3CCCO3)cc21 (some centres unmarked) [Example 70] | – | ≤ 100 |
| CC/C(Nc1ccc(N2CC3CC2CN3C)cc1)=C1/C(=O)Nc2ccc(C(=O)NCC(F)(F)F)cc21 (centres unmarked) [Example 71] | – | ≤ 100 |
| CC/C(Nc1ccc(N2CCN(C)CC2)nc1)=C1/C(=O)Nc2ccc(C(=O)NCC(F)(F)F)cc21 [Example 74] | – | ≤ 100 |
| CC/C(Nc1ccc(N2CCN(C)CC2)cn1)=C1/C(=O)Nc2ccc(C(=O)NCC(F)(F)F)cc21 [Example 75] | ≤ 100 | ≤ 100 |
| CC/C(Nc1cnn(C)c1)=C1/C(=O)Nc2ccc(C(=O)NCC(F)(F)F)cc21 [Example 77] | ≤ 100 | ≤ 100 |
| CC/C(Nc1ccc(-c2nc(C)no2)cc1)=C1/C(=O)Nc2ccc(C(=O)NCC(F)(F)F)cc21 [Example 78] | ≤ 100 | 100 to 300 |
| CC/C(Nc1ccc(-c2cn(C)nn2)cc1)=C1/C(=O)Nc2ccc(C(=O)NCC(F)(F)F)cc21 [Example 79] | – | ≤ 100 |
| CC/C(Nc1cnn(C2CCN(C(C)C)CC2)c1)=C1/C(=O)Nc2ccc(C(=O)NC[C@H]3CC(F)(F)CO3)cc21 [Example 80] | – | ≤ 100 |
| CC/C(Nc1cnn(C2CCN(C(C)C)CC2)c1)=C1/C(=O)Nc2ccc(C(=O)NCCOC(F)(F)F)cc21 [Example 82] | – | ≤ 100 |
| CC/C(Nc1cnn(C2CCN(C(C)C)CC2)c1)=C1/C(=O)Nc2ccc(C(=O)NC[C@H]3CCCCO3)cc21 [Example 83] | – | ≤ 100 |
| CC/C(Nc1cnn(C2CC3(C2)CN(C)C3)c1)=C1/C(=O)Nc2ccc(C(=O)NCC(F)(F)F)cc21 [Example 84] | ≤ 100 | ≤ 100 |
| CC/C(Nc1ccc(N2CC3(COC3)C2)cc1)=C1/C(=O)Nc2ccc(C(=O)NCC(F)(F)F)cc21 [Example 85] | ≤ 100 | 100 to 300 |
| CC/C(Nc1cnn(C2CN(C)C2)c1)=C1/C(=O)Nc2ccc(C(=O)NCC(F)(F)F)cc21 [Example 86] | 100 to 300 | ≤ 100 |
| CC/C(Nc1cnn(C2CN(C)C2)c1)=C1/C(=O)Nc2ccc(C(=O)NCC(C)C)cc21 [Example 87] | – | ≤ 100 |
| CC/C(Nc1cnn(C2CN(C3CCC3)C2)c1)=C1/C(=O)Nc2ccc(C(=O)NC[C@H]3CCCO3)cc21 [Example 88] | – | ≤ 100 |
| CC/C(Nc1cnn(C2CN(C)C2)c1)=C1/C(=O)Nc2ccc(C(=O)NCCOC)cc21 [Example 89] | – | 100 to 300 |
| CC/C(Nc1cnn(C2CN(CC)C2)c1)=C1/C(=O)Nc2ccc(C(=O)NC[C@H]3CCCO3)cc21 [Example 90] | – | ≤ 100 |
| CC/C(Nc1cnn(C2CN(C(C)C)C2)c1)=C1/C(=O)Nc2ccc(C(=O)NC[C@H]3CCCO3)cc21 [Example 91] | – | ≤ 100 |
| CC/C(Nc1ccc(N2CCN(C(C)C)CC2)cn1)=C1/C(=O)Nc2cc(F)c(C(=O)NCC(F)(F)F)cc21 [Example 92] | 300 to 600 | ≤ 100 |
